Test results from patent EP1220852B1, “SUBSTITUTED DIAZEPANS” (Novartis AG, priority 1999, dated 2001).

What was measured:
[1] = system: allergic contact dermatitis; assay: Allergic contact dermatitis (ACD), oxazolone-induced, pinnal weight; type: in vivo, female NMRI mice; conditions: pinnal weight 24 h after challenge
Method: ii) Allergic Contact Dermatitis (ACD)
Groups of 8 female NMRI mice are sensitized on the shaved abdomen with 50 µl of oxazolone (Sigma, 2% in acetone) and challenged with 10 µl of 0.2 or 2.0% oxazolone on the inner surface of the right ear 7 days later. The low concentration of oxazolone for induction of the elicitation phase is used for testing compounds on […] activity whereas the high concentration is applied for […] testing. The unchallenged left ears serve as normal controls and dermatitis is evaluated from the individual differences in pinnal weight, which is taken as a measure of increase in inflammatory swelling 24 h after the challenge. Dermatitis is evaluated in test- and for comparison in control groups. The test groups are treated with the test compounds either orally (twice, 2 h and immediately before challenge), subcutaneously (immediately before challenge) or topically (30 min after challenge at the site of elicitation of the ACD); the controls are treated similarly with the vehicles alone. […] The data of the test- and the vehicle-treated control groups are statistically analysed by ANOVA followed by Dunnet T-test (normal distribution or data) or by H and U-test, respectively. […]

LFA-1/ICAM-1 = molecular target: T1, LFA-1/ICAM-1 (Homo sapiens, UniProt P05107+P20701); assay: Cell free assay: binding of soluble human ICAM-1 to immobilized human LFA-1
T1 construct: endogenous in cells; host or cells: LFA-1: endogenous protein purified from JY cells (human lymphoblastoid B cell line); ICAM-1-Cκ fusion: made in house with the baculovirus system
T1 sequence (P20701 26-1170): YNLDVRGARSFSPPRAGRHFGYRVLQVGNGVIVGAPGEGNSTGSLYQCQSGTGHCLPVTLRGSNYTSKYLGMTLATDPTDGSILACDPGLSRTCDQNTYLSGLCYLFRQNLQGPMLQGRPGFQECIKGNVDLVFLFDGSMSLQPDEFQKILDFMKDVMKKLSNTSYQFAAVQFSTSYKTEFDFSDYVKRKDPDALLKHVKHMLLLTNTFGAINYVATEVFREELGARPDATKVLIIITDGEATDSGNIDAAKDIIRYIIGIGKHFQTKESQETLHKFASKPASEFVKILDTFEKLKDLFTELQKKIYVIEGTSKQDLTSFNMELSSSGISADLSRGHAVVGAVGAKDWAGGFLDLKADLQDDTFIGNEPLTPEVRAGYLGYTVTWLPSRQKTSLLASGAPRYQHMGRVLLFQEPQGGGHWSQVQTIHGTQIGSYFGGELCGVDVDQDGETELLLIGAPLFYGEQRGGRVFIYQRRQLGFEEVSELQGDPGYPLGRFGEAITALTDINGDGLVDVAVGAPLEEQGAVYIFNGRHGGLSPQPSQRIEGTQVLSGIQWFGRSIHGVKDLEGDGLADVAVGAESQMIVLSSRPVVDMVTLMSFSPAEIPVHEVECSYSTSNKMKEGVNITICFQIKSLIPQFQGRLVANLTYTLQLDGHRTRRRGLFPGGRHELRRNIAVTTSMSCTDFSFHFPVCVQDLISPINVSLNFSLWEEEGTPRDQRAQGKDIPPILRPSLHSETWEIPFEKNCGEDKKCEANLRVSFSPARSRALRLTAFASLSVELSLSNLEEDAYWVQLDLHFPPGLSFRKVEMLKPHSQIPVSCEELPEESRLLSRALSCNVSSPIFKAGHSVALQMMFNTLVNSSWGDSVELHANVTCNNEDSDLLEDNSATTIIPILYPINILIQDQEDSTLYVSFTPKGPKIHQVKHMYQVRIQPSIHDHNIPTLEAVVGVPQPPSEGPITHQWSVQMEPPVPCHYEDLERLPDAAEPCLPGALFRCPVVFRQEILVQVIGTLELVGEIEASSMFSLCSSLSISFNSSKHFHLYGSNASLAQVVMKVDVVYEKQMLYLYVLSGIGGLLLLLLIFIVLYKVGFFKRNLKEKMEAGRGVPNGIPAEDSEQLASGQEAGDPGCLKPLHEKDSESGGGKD
T1 sequence (P05107 23-769): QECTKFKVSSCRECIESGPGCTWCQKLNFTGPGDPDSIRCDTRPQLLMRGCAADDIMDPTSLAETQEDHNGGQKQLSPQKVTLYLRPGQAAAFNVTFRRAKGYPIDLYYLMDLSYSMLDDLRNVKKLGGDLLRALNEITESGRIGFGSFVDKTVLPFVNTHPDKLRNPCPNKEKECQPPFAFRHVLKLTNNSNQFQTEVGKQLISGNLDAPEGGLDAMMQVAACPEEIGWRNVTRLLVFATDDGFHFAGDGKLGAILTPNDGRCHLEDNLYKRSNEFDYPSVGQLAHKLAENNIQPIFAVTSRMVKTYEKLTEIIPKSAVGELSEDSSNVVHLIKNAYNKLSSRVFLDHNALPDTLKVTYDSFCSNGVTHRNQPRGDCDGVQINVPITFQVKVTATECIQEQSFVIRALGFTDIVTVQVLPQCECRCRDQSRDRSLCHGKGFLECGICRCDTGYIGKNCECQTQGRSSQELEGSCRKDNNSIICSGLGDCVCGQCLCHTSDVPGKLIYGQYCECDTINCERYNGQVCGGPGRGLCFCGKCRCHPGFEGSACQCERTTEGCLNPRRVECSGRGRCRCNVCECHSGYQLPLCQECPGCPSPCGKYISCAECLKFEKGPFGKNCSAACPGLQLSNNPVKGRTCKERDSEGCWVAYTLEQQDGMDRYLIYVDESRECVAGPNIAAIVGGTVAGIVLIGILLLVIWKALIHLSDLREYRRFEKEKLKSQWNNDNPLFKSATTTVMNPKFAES
Method: A. In vitro: Cell Free Assay
The assay measures the binding of soluble human ICAM-1 to immobilized human LFA-1. LFA-1 is purified from JY cells, a human lymphoblastoid B cell-line, by immunoaffinity chromatography as described by Dustin et a/. […] ICAM-1 mouse Cκ fusion protein (ICAM-1) is produced using the baculovirus system as described by Weitz-Schmidt et al. (Anal. Biochem.238,184-190, 1996).
Purified LFA-1 is diluted 1:20 in phosphate buffered saline (PBS) containing 2 mM MgCl2, pH 7.4 and coated onto microtitre plates (Nunc) at 37°C for 3h. Plates are blocked with 1% heat-treated BSA in PBS for 2 hours at 37°C followed by a washing step using PBS, 2mM MgCl2, 1% fetal calf serum, pH 7.4 (assay buffer). Compounds dissolved at 10 mM in DMSO are diluted in assay buffer and added to the plates. Biotinylated recombinant ICAM-1 in assay buffer (6 µg/ml) is added and allowed to bind at 37°C for one hour. After incubation, wells are washed with assay buffer. Streptavidin-peroxidase diluted 1:5000 in assay buffer is added and incubated for 45 min at 37 °C. Plates are then washed with assay buffer and 2.2'-azino-bis(3-ethylbenzothiazoiine-6 sulfonic acid) diammonium salt substrate solution is added to each well. The reaction is stopped after 20 min and bound ICAM-1 is determined by measuring the optical density at 405 nm in a microplate reader.

SMILES: C[C@@H]1CCN([C@H](Cc2cccc3ccccc23)C(N)=O)C(=O)[C@H](c2ccccc2)N1C(=O)Cc1ccc2ncccc2c1 [Example 3, (R)-2-[(3S,5R)-5-Methyl-2-oxo-3-phenyl-4-(quinolin-6-yl-acetyl)-[1,4]diazepan-1-yl)-3-(naphthalen-1-yl)-propionamide]
- inhibiting effect ([1]; administered p.o. at a dose of 2 x 3 mg/kg): 40%
- inhibiting effect ([1]; applied topically at a dose of 10 mM): 50%
- IC50 (LFA-1/ICAM-1): 70 nM
